Assay results published in paper PMC6112376, “Comprehensive Analyses and Prioritization of Tox21 10K Chemicals Affecting Mitochondrial Function by in-Depth Mechanistic Studies” (Environmental Health Perspectives, 2018).
Like-named read-outs stand apart in the source and are kept apart here.

Columns and labels:
[1] = test system: Caenorhabditis elegans (Bristol N2); experiment: C. elegans larval development and growth assay
hNSC = experiment: MMP assay in human neural stem cells (hNSC); type: cell-based; details: Homo sapiens, Neural stem cell, 1 h, read-out: hNSC IC50 (MMP)
[2] = test system: Caenorhabditis elegans strain PE255; details: PE255 [sur-5::luc+::gfp; rol-6(su1006)], Caenorhabditis elegans, in vivo
HepG2 cells [3] = details: cited from earlier work
[4] = test system: Nrf2/ARE (ARE-bla HepG2 cells); experiment: ARE β-lactamase reporter gene assay; type: cell-based, human; details: Homo sapiens, HepG2; 16 h incubation; mean±SD of three experiments; read-out: ARE (HepG2) EC50
rat primary hepatocytes [5] = experiment: MMP assay in rat primary hepatocytes; details: Rattus norvegicus, Hepatocyte
[6] = test system: p53 (p53-bla HCT-116 cells); experiment: p53 β-lactamase reporter gene assay; type: cell-based, human; details: Homo sapiens; 16 h incubation; mean±SD of three experiments
HepG2 cells [7] = experiment: ROS-Glo hydrogen peroxide (ROS) assay; type: cell-based, human
[8] = test system: isolated rat liver mitochondria; experiment: Oxygen consumption, Clark-type oxygen electrode; type: biochemical
[9] = test system: HeLa cells expressing YFP-Parkin; experiment: Parkin translocation assay; type: cell-based, human
rat primary hepatocytes [10] = test system: rat primary hepatocytes
HepG2 cells [11] = experiment: Intracellular ATP content (cell viability) assay; type: cell-based, human; details: Homo sapiens, HepG2, 40 h
[12] = test system: Caenorhabditis elegans strain PE255; experiment: In vivo C. elegans ATP status assay
HepG2 cells [13] = experiment: cells; details: Homo sapiens

Nc1ccc(N)c2c1C(=O)c1ccccc1C2=O [1,4-Diaminoanthraquinone]
EXT: mean difference in nematode size relative to plate controls ([1]; 0.5 µM): 0.03102 | EXT: mean difference in nematode size relative to plate controls ([1]; 1 µM): 0.01427 | EXT: mean difference in nematode size relative to plate controls ([1]; 5 µM): 0.05881 | EXT: mean difference in nematode size relative to plate controls ([1]; 10 µM): -0.04953 | EXT: mean difference in nematode size relative to plate controls ([1]; 25 µM): 0.1095 | EXT: mean difference in nematode size relative to plate controls ([1]; 50 µM): 0.2596 | EXT: mean difference in nematode size relative to plate controls ([1]; 75 µM): 0.3422 | EXT: mean difference in nematode size relative to plate controls ([1]; 100 µM): 0.4149 | minimal effective concentration ([1]; Caenorhabditis elegans, read-out: LEC EXT: lowest effect concentration for extinction, a measure of nematode size): 25 µM | IC50 (hNSC): 0.15 µM | LEC (lowest effect concentration), ATP assay [2]: ≤ 10 µM | MMP assays efficacy (%) qHTS-HepG2 (HepG2 cells [3]): -82±13% | IC50 (HepG2 cells [3]; read-out: MMP assays IC50 (µM) qHTS-HepG2): 0.03 ± 0.01 µM | EC50 [4]: 22.9 ± 27.4 µM | IC50 (rat primary hepatocytes [5]; 1 h, read-out: Rat hepatocytes IC50 (MMP)): 3.79 µM | IC50 (rat primary hepatocytes [5]; read-out: MMP assays IC50 (µM) Rat Hepatocytes): 1.24 ± 0.76 µM | EC50 [6]: 35.7 ± 2.41 µM | ROS (HepG2) EC50 (HepG2 cells [7]): Inactive | Potential Mechanism [8]: Inactive | I-ADP, % of control (O2 consumption rate) ([8]; 20 µM): 89 (44.1) % of control | I-sub, % of control (O2 consumption rate) ([8]; 20 µM): 103 (14.2) % of control | II-ADP, % of control (O2 consumption rate) ([8]; 20 µM): 90 (80.2) % of control | II-sub, % of control (O2 consumption rate) ([8]; 20 µM): 100 (27.1) % of control | I-ADP, % of control (O2 consumption rate) ([8]; 100 µM): 82 (23.4) % of control | I-sub, % of control (O2 consumption rate) ([8]; 100 µM): 95 (11.4) % of control | II-ADP, % of control (O2 consumption rate) ([8]; 100 µM): 97 (35.2) % of control | II-sub, % of control (O2 consumption rate) ([8]; 100 µM): 95 (14.1) % of control | Parkin recruitment [9]: Inactive | MMP assays efficacy (%) Rat Hepatocytes (rat primary hepatocytes [10]): -93±8% | Rat hepatocytes (efficacy) (MMP) (rat primary hepatocytes [10]): 3.79±1.62 ( −118±24.7 ) % | IC50 (HepG2 cells [11]; read-out: ATP (HepG2, galactose) IC50): 22.3 µM | IC50 (HepG2 cells [11]; read-out: ATP (HepG2, glucose) IC50): 24.7 µM | LUM: mean difference in luminescence (ATP content) relative to plate controls ([12]; 0.5 µM): 0.03036 | LUM: mean difference in luminescence (ATP content) relative to plate controls ([12]; 1 µM): 0.08336 | LUM: mean difference in luminescence (ATP content) relative to plate controls ([12]; 5 µM): 0.4462 | LUM: mean difference in luminescence (ATP content) relative to plate controls ([12]; 10 µM): 0.9963 | LUM: mean difference in luminescence (ATP content) relative to plate controls ([12]; 25 µM): 1.526 | LUM: mean difference in luminescence (ATP content) relative to plate controls ([12]; 50 µM): 1.59 | LUM: mean difference in luminescence (ATP content) relative to plate controls ([12]; 75 µM): 2.063 | LUM: mean difference in luminescence (ATP content) relative to plate controls ([12]; 100 µM): 2.457 | minimal effective concentration ([12]; Caenorhabditis elegans, read-out: LEC LUM: lowest effect concentration for luminescence, a measure of nematode ATP content): 5 µM | IC50 (HepG2 cells [13]; HepG2, 1 h, read-out: HepG2 IC50 Galactose (MMP)): 1.13 µM | IC50 (HepG2 cells [13]; HepG2, 1 h, read-out: HepG2 IC50 Glucose (MMP)): 0.77 µM | IC50 (HepG2 cells [13]; HepG2, read-out: MMP assays IC50 (µM) HepG2): 0.22 µM | Emax (HepG2 cells [13]; HepG2, read-out: MMP assays efficacy (%) HepG2): 81%
